Data: patent publication US6670168B1, “Recombinant Streptomyces hygroscopicus host cells that produce 17-desmethylrapamycin” (Kosan Bioscience, Inc., priority 1999, dated 2003)

Test: immunosuppressive activity compared with rapamycin (no test described)
Conditions: relative to rapamycin; qualitative statement, no method or data given

COC1CC(CC(C)C2CC(=O)C(C)C=C(C)C(O)CC(=O)C(C)CC(C)C=CC=CC=C(C)C(O)CC3CCC(C)C(O)(O3)C(=O)C(=O)N3CCCCC3C(=O)O2)CCC1O (stereo not shown) [16-desmethyl-27-desmethoxyrapamycin]
immunosuppressive activity: lower immunosuppressive activity than rapamycin
